Results published in US20200317660A1, “Quinazolinone Compound and Application Thereof” (LUOXIN PHARMACEUTICAL (SHANGHAI) CO., LTD., priority 2017, published 2020).
Read-outs that look alike come from different tables or passages of the source.

What was measured:
[1] = target: T1, PI3Kγ (Homo sapiens, UniProt P48736); test: In vitro test of enzyme activity (ADP-Glo lipokinase), PI3K gamma; type: biochemical; conditions: 25 μM ATP, 50 μM PIP2:3PS, 120 min
T1 construct: purchased Millipore 14-558-K
T1 sequence (P48736 whole entry): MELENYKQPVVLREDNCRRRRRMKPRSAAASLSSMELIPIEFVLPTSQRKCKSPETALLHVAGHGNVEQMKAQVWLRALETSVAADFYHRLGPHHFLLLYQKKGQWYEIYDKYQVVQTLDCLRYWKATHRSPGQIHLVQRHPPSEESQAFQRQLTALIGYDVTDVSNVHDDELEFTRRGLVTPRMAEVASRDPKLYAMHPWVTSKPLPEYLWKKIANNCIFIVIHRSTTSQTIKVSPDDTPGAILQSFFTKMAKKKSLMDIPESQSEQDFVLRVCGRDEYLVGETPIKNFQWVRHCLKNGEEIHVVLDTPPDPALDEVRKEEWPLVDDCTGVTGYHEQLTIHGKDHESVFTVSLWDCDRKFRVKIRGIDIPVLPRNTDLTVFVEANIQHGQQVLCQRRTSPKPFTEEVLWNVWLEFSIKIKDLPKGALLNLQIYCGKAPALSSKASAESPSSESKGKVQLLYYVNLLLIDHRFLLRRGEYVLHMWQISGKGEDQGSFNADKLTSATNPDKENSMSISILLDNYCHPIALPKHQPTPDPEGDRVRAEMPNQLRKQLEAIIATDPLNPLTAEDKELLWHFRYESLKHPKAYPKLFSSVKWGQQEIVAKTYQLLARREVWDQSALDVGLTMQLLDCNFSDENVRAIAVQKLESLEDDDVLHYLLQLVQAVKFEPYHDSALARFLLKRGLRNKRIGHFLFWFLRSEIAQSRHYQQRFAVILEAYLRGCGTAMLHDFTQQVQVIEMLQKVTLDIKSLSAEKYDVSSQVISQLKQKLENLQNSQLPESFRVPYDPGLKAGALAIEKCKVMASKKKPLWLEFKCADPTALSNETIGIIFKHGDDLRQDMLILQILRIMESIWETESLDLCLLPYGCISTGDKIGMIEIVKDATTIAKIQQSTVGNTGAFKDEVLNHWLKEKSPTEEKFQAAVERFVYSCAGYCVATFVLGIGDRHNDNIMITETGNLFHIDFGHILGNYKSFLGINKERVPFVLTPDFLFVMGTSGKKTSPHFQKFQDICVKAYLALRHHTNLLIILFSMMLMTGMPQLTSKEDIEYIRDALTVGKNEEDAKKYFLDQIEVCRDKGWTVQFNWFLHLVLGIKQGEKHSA
Experimental: (§1) 1. In Vitro Test of Enzyme Activity
(§2) The lipokinase reaction was carried out under the conditions of a suitable substrate and ATP, followed by two steps to detect the kinase activity with the ADP-Glo™ kit. The first step was terminating the kinase reaction, wherein the remaining ATP was completely removed and only ADP was left; the second step was adding kinase detection reagents to convert ADP to ATP, accompanied by luciferin/luciferase reaction. Finally, the output value of fluorescence value was converted into kinase activity.
(§3) Experimental materials and equipments:
(§4) 2. Kit: ADP-Glo™ Lipokinase and PIP2:3PS Kit (Promega # V1792)
(§5) The kit contains: 1 mM PIP2:3PS, 10× lipid dilution buffer, 1 M magnesium chloride, 10 mM ATP, 10 mM ADP, ADP-Glo reagent, detection buffer and detection substrate.
(§6) 3. Reaction plate: OptiPlate-384, white and transparent (PerkinElmer #6007299).
(§7) 1. 10× reaction buffer: 500 mM HEPES, pH 7.5, 500 mM NaCl, 9 mM MgCl2; BSA: 10% stock solution, homemade.
(§8) 2. Final test system conditions: 1× reaction system: 50 mM HEPES, 50 mM NaCl, 3 mM MgCl2, 0.01% BSA (freshly prepared on the day of the experiment), 1% DMSO (v/v)+/−compound
(§9) 3. Reaction system: 3 μL mixture of the enzyme and the substrate (1:1)+2 μL ATP/MgCl2 mixture+5 μL ADP-Glo reagent+10 μL detection reagent.
(§10) The detailed experimental procedures are as follows:
(§11) 1. Compound dilution: 50 nL 100×compound/DMSO was transferred to the test well plate with Echo. • For PI3Kα, the compound was diluted three-fold from the highest concentration of 0.111 mM for a total of 10 concentrations. • For PI3Kβ/PI3Kδ/PI3Kγ, the compound was three-fold diluted from the highest concentration of 1.11 mM for a total of 10 concentrations.
(§12) (1) The compound to be tested was prepared and 50 nL of 100 plus compound solution or DMSO was added to the corresponding well plate.
(§13) (2) 3.33 plate reaction buffer was prepared.
(§14) (3) 3.33 solution PIP2:3PS was prepared, PIP2:3PS was thawed for at least 1 minute before use.
(§15) (4) 2.5 mM containing 5.25 mM MgCl2 was prepared.
(§16) (5) 3.33 PI3Kα/PI3Kβ/PI3Kδ/PI3Kγ solution was prepared.
(§17) (6) The lipokinase solution and the PIP2:3PS solution were mixed in a volume ratio of 1:1.
(§18) (7) 3.33: lipokinase buffer and PIP2:3PS solution were mixed in a volume ratio of 1:1.
(§19) (8) 3 μL of buffer solution and PIP2:3PS were added to the first and the second columns of the well plate.
(§20) (9) 3 μL of the mixed solution of the enzyme and PIP2:3PS was added to the wells except the first and the second columns, centrifuged for 10 seconds (1000 rpm) and incubated at 23° C. for 20 minutes.
(§21) (10) 2 μL […] was added and well was shaken.
(§22) (11) The well plate was covered and shaken for about 30 s, then the well plate was incubated at 23° C. for 2 hours.
(§23) (12) 5 μL of ADP-Glo reagent containing 10 mM MgCl2 was added.
(§24) (13) The well plate was centrifuged at 1000 rpm for 10 seconds, and the well plate was then covered, shaken for about 30 seconds, and incubated at 23° C. for 60 minutes.
(§25) (14) 10 μL kinase detection reagent was added.
(§26) (15) The well plate was centrifuged at 1000 rpm for 10 seconds, and then incubated at 23° C. for 60 minutes.
(§27) (16) The fluorescence value was measured on the Envision instrument.

[2] = In vivo DMPK study in mice after a single administration; set-up: species or system female Balb/c mice; conditions: for Cmax / Oral DNAUC (area under the dose normalization curve): oral
Experimental: Experimental objective: female Balb/c mice were used as the test animals, and the blood concentration of the compound was determined and the pharmacokinetic behavior was evaluated after a single administration.
Experimental operation: 12 healthy adult female Balb/c mice were selected, 6 for intravenous injection group and 6 for oral administration group. The compound to be tested was mixed with an appropriate amount of intravenous injection group vehicle (10% HP-betaCD: 10% solutol=1:1, pH=8), vortex-mixed and sonicated to prepare a 1.0 mg/mL clear solution, followed by filtration for subsequent use; the vehicle in the oral group was 0.5% MC/0.2% Tw80. After the test compound and the vehicle were mixed, it was vortex-mixed and sonicated to prepare a 1.0 mg/mL homogeneous suspension for subsequent use. After an intravenous administration at a dose of 1 mg/kg or an oral administration at the dose of 2 mg/kg and 10 mg/kg, whole blood of the mice was collected for a certain period of time to prepare plasma. The drug concentration was analyzed by LC-MS/MS method, and Phoenix WinNonlin software was used (Pharsight, USA) to calculate the pharmacokinetic parameters.
Cmax: the highest concentration of the drug in the body; F %: oral bioavailability; Oral DNAUC: area under the dose normalization curve; Vd: apparent volume of distribution; Cl: clearance rate; T1/2: half-life.

[3] = test system: phosphorylation of PI3K downstream protein Akt in MCF7 cells; test: In vitro test of cells activity: ELISA of Akt phosphorylation in MCF7 cells; type: cell-based; conditions: 2 h compound, insulin 10 μg/mL stimulation, pAkt ELISA, read-out: MCF7 Cell IC50
Experimental: 2. In vitro test of cells activity
By the method of ELISA, the inhibition level of the test compound on the phosphorylation of PI3K downstream protein Akt in the signaling pathway was determined in MCF7 cells line to reflect the cells activity of the compound.
Cell culture medium: complete cell culture medium (RPMI 1640+10% serum+1% L-glutamine+1% double antibody)
Serum-free medium (without serum, RPMI 1640+1% L-glutamine+1% double antibody)
The detailed procedures areas follows:
(1) MCF7 cells (ATCC® HTB-22™) were inoculated into a 96-well plate at 100 μL of cell complete medium per well (2.5*10^4 cells per well), and the cells were incubated at 37° C. and 5% CO2 for 24 hours.
(2) The complete cell culture medium was replaced with 100 μL of serum-free medium, and incubated for starvation overnight.
(3) The compound was prepared (The initial concentration of the compound is 1 mM, which was subjected to a three-fold dilution in 10 concentrations, and the compound of each concentration was then diluted 100-fold with serum-free medium). 25 μL of the diluted compound was added to the cells orifice plate.
(4) The cells were incubated at 37° C. and 5% CO2 for 2 hours.
(5) The cells in the well plate were stimulated with 10 μg/mL insulin (Sigma # I9278-5 mL), incubated for 30 minutes, and then centrifuged at 1000 rpm for 5 minutes at room temperature.
(6) 250 μL of 1× balanced salt solution (Invitrogen, #14065-056, 4° C., containing 1 mM/L Na3VO4) was added to each well to wash the cells once.
(7) 100 μL of lysis buffer (trimethylolaminomethane hydrochloride, Invitrogen, #15567-1000 ml) was added to each well, shaken at 4° C. for 60 minutes, and then centrifuged at 4000 rpm for 4 minutes.
(8) The following procedures were carried out according to the instructions of ELISA kit (TGR BioSciences # EKT002).

[4] = target: T2, PI3Kδ (Homo sapiens, UniProt O00329); test: In vitro test of enzyme activity (ADP-Glo lipokinase), PI3K delta; type: biochemical; conditions: 40 μM ATP, 50 μM PIP2:3PS, 120 min
T2 construct: purchased Millipore 14-604-K
T2 sequence (O00329 whole entry): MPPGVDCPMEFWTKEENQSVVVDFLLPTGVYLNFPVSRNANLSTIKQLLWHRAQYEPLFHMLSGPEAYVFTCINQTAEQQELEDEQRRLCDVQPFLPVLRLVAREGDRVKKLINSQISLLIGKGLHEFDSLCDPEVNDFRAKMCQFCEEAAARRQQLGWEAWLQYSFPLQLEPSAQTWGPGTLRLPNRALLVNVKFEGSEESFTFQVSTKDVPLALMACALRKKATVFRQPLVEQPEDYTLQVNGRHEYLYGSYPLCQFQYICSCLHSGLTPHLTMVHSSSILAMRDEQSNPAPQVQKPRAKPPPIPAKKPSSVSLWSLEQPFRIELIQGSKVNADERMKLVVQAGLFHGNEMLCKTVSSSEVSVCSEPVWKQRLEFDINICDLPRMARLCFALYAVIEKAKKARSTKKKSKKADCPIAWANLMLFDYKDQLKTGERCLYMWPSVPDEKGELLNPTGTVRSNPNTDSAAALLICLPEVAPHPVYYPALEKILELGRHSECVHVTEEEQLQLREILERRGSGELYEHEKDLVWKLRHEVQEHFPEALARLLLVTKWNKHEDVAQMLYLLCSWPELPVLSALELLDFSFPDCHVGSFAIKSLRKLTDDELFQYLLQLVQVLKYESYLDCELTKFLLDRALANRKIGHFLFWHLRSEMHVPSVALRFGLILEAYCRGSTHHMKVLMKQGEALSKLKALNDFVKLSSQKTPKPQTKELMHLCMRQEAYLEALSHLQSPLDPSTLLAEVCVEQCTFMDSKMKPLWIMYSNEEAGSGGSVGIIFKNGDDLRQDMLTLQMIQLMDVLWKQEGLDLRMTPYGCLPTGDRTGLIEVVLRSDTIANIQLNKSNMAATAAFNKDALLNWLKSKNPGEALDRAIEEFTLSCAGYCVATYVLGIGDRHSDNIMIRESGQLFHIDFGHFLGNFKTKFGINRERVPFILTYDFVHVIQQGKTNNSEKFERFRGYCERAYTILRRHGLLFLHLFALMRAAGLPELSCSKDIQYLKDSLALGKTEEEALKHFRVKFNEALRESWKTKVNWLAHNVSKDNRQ
T2 sequence (P27986 whole entry partner): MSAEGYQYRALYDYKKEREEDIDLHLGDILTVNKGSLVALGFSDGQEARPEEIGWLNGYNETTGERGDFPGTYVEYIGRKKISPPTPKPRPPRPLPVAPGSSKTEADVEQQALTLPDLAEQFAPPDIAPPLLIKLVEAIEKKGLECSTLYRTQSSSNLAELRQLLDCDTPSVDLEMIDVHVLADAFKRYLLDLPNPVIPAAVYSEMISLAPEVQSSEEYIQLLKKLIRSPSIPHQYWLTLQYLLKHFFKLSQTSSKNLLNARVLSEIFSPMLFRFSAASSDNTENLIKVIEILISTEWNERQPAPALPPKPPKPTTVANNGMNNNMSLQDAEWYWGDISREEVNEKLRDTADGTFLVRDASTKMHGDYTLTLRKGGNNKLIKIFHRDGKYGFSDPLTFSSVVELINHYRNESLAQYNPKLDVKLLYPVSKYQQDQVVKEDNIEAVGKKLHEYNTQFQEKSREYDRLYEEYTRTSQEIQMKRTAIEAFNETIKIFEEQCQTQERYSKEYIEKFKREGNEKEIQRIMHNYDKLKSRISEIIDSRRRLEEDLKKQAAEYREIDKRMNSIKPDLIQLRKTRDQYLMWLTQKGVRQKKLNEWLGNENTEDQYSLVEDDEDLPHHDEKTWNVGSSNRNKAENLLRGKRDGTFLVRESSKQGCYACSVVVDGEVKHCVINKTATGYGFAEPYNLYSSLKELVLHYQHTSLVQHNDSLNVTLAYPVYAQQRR
Experimental: as §1, §2, §3, §4, §5, §6, §7, §8, §9, §10, §11, §12, §13, §14, §15, §16, §17, §18, §19, §20, §21, §22, §23, §24, §25, §26, §27

[5] = target: T3, PI3Kβ (Homo sapiens, UniProt P42338); test: In vitro test of enzyme activity (ADP-Glo lipokinase), PI3K beta; type: biochemical; conditions: 40 μM ATP, 50 μM PIP2:3PS, 120 min
T3 construct: purchased Promega V1751
T3 sequence (P42338 whole entry): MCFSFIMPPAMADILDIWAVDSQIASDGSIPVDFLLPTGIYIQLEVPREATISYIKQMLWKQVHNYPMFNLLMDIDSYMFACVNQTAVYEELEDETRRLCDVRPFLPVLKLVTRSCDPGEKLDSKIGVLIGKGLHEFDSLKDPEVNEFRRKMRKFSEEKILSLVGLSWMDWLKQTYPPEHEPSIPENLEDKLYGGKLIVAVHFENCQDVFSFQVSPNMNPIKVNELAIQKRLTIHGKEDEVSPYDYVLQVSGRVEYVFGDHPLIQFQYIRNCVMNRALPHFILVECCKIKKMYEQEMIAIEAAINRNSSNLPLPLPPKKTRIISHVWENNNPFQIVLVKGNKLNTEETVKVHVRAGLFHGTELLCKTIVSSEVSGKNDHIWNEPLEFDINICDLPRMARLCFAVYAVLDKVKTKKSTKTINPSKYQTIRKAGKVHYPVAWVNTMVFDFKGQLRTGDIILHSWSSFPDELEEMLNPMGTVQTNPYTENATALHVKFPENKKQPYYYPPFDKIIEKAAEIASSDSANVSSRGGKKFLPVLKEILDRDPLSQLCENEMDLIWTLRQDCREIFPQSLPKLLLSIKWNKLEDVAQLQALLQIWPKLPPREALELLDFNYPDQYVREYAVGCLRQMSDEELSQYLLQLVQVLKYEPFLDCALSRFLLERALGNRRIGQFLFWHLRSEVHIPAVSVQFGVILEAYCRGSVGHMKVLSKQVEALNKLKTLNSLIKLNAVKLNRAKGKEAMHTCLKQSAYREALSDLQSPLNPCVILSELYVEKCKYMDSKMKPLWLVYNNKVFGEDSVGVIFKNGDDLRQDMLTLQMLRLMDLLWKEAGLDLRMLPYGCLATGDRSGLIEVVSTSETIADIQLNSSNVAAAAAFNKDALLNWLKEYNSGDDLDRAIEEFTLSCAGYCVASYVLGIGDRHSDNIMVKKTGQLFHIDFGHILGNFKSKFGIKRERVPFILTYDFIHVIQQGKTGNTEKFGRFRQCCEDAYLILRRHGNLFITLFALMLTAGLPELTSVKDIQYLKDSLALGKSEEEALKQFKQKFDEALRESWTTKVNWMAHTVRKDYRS
T3 sequence (P27986 whole entry partner): as the sequence (P27986 whole entry partner) above
Experimental: as §1, §2, §3, §4, §5, §6, §7, §8, §9, §10, §11, §12, §13, §14, §15, §16, §17, §18, §19, §20, §21, §22, §23, §24, §25, §26, §27

[6] = target: T4, PI3Kα (Homo sapiens, UniProt P42336); test: In vitro test of enzyme activity (ADP-Glo lipokinase), PI3K alpha; type: biochemical; conditions: 40 μM ATP, 50 μM PIP2:3PS, 120 min
T4 construct: purchased Millipore 14-602-K
T4 sequence (P42336 whole entry): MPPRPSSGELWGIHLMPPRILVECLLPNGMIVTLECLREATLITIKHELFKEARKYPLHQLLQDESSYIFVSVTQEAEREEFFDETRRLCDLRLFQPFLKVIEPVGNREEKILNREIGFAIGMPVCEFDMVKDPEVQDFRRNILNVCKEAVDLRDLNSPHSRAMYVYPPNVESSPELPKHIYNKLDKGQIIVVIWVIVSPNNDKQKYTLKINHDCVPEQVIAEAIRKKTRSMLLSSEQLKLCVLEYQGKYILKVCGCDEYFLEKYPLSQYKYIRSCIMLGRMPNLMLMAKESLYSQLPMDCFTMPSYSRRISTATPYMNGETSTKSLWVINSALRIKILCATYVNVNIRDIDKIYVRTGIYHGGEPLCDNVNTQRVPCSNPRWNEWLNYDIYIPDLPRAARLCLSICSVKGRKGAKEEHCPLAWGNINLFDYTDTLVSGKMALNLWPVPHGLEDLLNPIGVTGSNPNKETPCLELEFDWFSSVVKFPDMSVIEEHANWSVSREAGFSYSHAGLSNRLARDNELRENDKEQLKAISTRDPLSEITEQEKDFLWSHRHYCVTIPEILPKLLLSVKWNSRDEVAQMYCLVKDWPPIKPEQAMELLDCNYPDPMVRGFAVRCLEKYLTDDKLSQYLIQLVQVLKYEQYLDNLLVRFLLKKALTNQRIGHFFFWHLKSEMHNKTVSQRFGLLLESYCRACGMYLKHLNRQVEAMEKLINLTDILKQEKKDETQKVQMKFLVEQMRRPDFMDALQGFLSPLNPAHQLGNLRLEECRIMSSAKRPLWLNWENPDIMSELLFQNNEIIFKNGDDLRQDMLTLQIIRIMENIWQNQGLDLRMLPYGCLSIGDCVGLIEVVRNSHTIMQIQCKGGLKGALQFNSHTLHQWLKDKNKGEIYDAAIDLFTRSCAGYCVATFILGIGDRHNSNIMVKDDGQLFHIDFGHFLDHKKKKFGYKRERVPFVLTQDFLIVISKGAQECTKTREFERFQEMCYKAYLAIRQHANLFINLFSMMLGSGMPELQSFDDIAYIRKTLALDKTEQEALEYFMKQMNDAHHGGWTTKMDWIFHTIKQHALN
T4 sequence (P27986 whole entry partner): as the sequence (P27986 whole entry partner) above
Experimental: as §1, §2, §3, §4, §5, §6, §7, §8, §9, §10, §11, §12, §13, §14, §15, §16, §17, §18, §19, §20, §21, §22, §23, §24, §25, §26, §27

Row | IC50 [1] [µM] | Cl (clearance rate) ([2]; intravenous 1 mg/kg) [mL/min/kg] | Intravenous injection T1/2 ([2]; intravenous 1 mg/kg) [h] | Vd (apparent volume of distribution) ([2]; intravenous 1 mg/kg) [L/kg] | F % (oral bioavailability) ([2]; oral 10 mpk vs intravenous 1 mg/kg) [%] | Cmax ([2]; 10 mpk) [µM] | Oral DNAUC (area under the dose normalization curve) ([2]; 10 mpk) [nM · h/mpk] | IC50 [3] [µM] | IC50 [4] [µM] | IC50 [5] [µM] | IC50 [6] [µM] | Cmax ([2]; 2 mpk) [µM] | Oral DNAUC (area under the dose normalization curve) ([2]; 2 mpk) [nM · h/mpk] | IC50 ([3]; Homo sapiens, MCF7, 2 h) [µM] | SMILES
1 | 0.36 | 1.29 | 3.55 | 0.324 | 58.4 | 18.3 | 12262 | 0.0134 | 0.403 | 2.28 | 0.0208 | – | – | – | CNC(=O)C(C)Cn1cnc2ccc(-c3cnc(OC)c(NS(=O)(=O)c4cc(C(F)(F)F)cc(C(F)(F)F)c4)c3)cc2c1=O (single isomer, unassigned) [WX103]
2 | 0.0183 | – | – | – | – | – | – | 0.0674 | 0.0188 | 0.399 | 0.00247 | 3.39 | 1047 | – | COc1ncc(-c2ccc3ncn(CC(C)C(=O)NCCF)c(=O)c3c2)cc1NS(=O)(=O)c1ccc(F)cc1Cl (single isomer, unassigned) [WX067]
3 | 0.0152 | – | – | – | – | – | – | – | 0.00525 | 0.0959 | 0.00122 | – | – | 0.209 | CNC(=O)[C@H]1C[C@H](n2cnc3ccc(-c4cnc(C)c(NS(=O)(=O)c5ccc(F)cc5Cl)c4)cc3c2=O)C1 [WX013]
4 | 0.0452 | – | – | – | – | – | – | 0.072 | 0.0297 | 1.12 | 0.0049 | – | – | – | COCCNC(=O)C(C)Cn1cnc2ccc(-c3cnc(OC)c(NS(=O)(=O)c4ccc(F)cc4Cl)c3)cc2c1=O (single isomer, unassigned) [WX065]
5 | 0.001 | – | – | – | – | – | – | 0.0239 | 0.00047 | 0.0132 | 0.00041 | – | – | – | COc1ncc(-c2ccc3ncn(CC(C)C(N)=O)c(=O)c3c2)cc1NS(=O)(=O)c1sc(C)nc1C (single isomer, unassigned) [WX025]
6 | 0.00457 | – | – | – | – | – | – | – | 0.00388 | 0.0685 | 0.00116 | – | – | 0.0168 | COc1ncc(-c2ccc3ncn(CCC(N)=O)c(=O)c3c2)cc1NS(=O)(=O)c1ccc(F)cc1Cl [WX001]
7 | 0.0292 | – | – | – | – | – | – | 0.193 | 0.0411 | 1.15 | 0.0105 | – | – | – | CNC(=O)C(C)Cn1cnc2c(F)cc(-c3cnc(OC)c(NS(=O)(=O)c4ccc(F)cc4Cl)c3)cc2c1=O (single isomer, unassigned) [WX105]
8 | 0.0973 | – | – | – | – | – | – | 0.0057 | 0.0262 | 0.537 | 0.00511 | – | – | – | CNC(=O)C(C)Cn1cnc2ccc(-c3cnc(OC)c(NS(=O)(=O)c4ccc(C)cc4C)c3)cc2c1=O (single isomer, unassigned) [WX091]
